Measured values: US10045978B2 (AB SCIENCE, priority 2010, dated 2018)

System: patients with indolent forms of mastocytosis with handicap, D816V absent in at least one infiltrated organ
Assay: Example 1 phase 2a study, response assessment
Type: in vivo, human
Design: Hamilton rating Δ Mean ± SD / QLQ-C30 Symptom Δ Mean ± SD / QLQ-C30 Global Health Δ Mean ± SD / AFIRMM Δ Mean ± SD / Hamilton rating ΔMean ± SD / QLQC30 Symptom ΔMean ± SD / QLQC30 Global Health ΔMean ± SD / AFIRMM ΔMean ± SD: scale not given here
Method: Eligible patients were aged >18 years, had previously documented indolent systemic, smoldering systemic or cutaneous mastocytosis as per the WHO classification with associated disability as the result of mast cell released mediators and had not responded to usual symptomatic treatments for more the 6 months. […] A single occurrence of this criterion was deemed sufficient for inclusion and so no systematic examination of multiple organs was carried out specifically for this study.
Patients were classified as having a handicap if after appropriate symptomatic treatments they fulfilled at least one of the following a priori criteria: number of flushes/day ≥1; pruritus score ≥6; number of stools ≥4/day; micturition frequency ≥8/day; Hamilton rating for depression ≥10; or EORTC quality-of-life questionnaire (QLQ-C30) symptom score, functional score, and global health status of >0. Patients were excluded if they experienced inadequate organ function defined via blood test levels, or an Eastern Cooperative Oncology Group performance status >2. Other exclusion criteria included: life expectancy <6 months, severe or uncontrolled medical disease, and patients who were pregnant or nursing.
In accordance to the AFIRMM study (Hermine O, et al., 2008, PLoS ONE. 3:e2266), evaluation of treatment response was based upon the change of clinical symptoms associated with a patient's handicaps at week 12 (W12) relative to baseline. Primary endpoints were daily frequency of flushes; pruritus score; and Hamilton rating for depression, as well as, daily stool and micturition frequencies; QLQ-C30 global health status, functional, and symptom scores. […] For those patients entering the extension phase, assessments were performed every 4 weeks for the first 3 months of extension, and every 12 weeks thereafter. Secondary endpoints included the W12 assessment of AFIRMM score (a validated questionnaire assessing the self-perceived severity of mastocytosis) (Hermine O, et al., 2008, PLoS ONE. 3:e2266); overall patient assessment (OPA) score; tryptase levels; and change in organ mast cell infiltration. Determination of D816V mutation and serum tryptase levels was conducted following procedures described previously (Hermine O, et al., 2008, PLoS ONE. 3:e2266). Overall clinical response analysis at W12 defined a responder as having an improvement of ≥50% in baseline handicap of a key response endpoint (Hamilton rating, flushes, or pruritus) without deterioration or emergence of handicap. Any patient with deterioration of ≥50% in any handicap, and/or with emergence of a new handicap with an increase of ≥50% from baseline was considered as worsening. Any patient who discontinued the study before W12 was considered a non responder. Discrimination between dose regimens was investigated by analyses of the ‘time to first response’, according to the initial dosage, and ‘dose at time of first response’ in key response endpoints.
Response analysis was performed on subgroups of the ITT population according to a patient's handicap at baseline and for whom response was evaluated at W12; referred to hereafter as the handicap-related population. No data imputation was implemented. The per protocol (PP) population was defined as a subset of a given handicap-related population, which in addition had presented no major protocol deviations. Summary response data are presented using descriptive statistics with mean improvement compared to baseline in each handicap cohort, regardless of disease classification. The appropriate Wilcoxon or Fisher tests were used for group comparison of baseline disease, demographic characteristics between dose level groups and response relative to baseline. Subpopulation analysis was also conducted according to initial c-Kit status.

[1] = W12, Group 1 (no confirmed D816V)
[2] = W12, Group 2 (mixed c-Kit status)
[3] = W12, handicap-related population

## Cc1ccc(NC(=O)c2ccc(CN3CCN(C)CC3)cc2)cc1Nc1nc(-c2cccnc2)cs1 [masitinib, 4-(4-methylpiperazin-1-ylmethyl)-N-[4-methyl-3-(4-pyridin-3ylthiazol-2-ylamino)phenyl]benzamide]
1/14 evaluable patients
  skin mast cell infiltration: good partial response (≥50% reduction): 7%
1/20 patient at one time point
  OPA: worsening of health status: 5%
6/14 evaluable patients
  skin mast cell infiltration: partial response (1 to 49% reduction): 43%
7/14 evaluable patients
  skin mast cell infiltration: no change: 50%
9/20 patients
  OPA score improvement of at least one point: 45%
48/79 events
  first response events at lower dose level of 4.5 mg/kg/day: 60%
76/79 events
  first response events occurring at dose ≤6 mg/kg/day: 96%
Total, all doses
  first response events: AFIRMM score: 10
  first response events: Flush: 17
  first response events: Hamilton: 10
  first response events: Micturition: 1
  first response events: OPA score: 7
  first response events: Pruritus: 11
  first response events: QLQ30 Functional: 5
  first response events: QLQ30 Global: 6
  first response events: QLQ30 Symptom: 5
  first response events: Stool: 7
  first response events: Total events: 79
W12
  QLQ-C30 functional score improvement: 39%±81
  QLQ-C30 global health status improvement: 51%±108
  QLQ-C30 symptom score improvement: 2.5%±69
  clinical response rate: Hamilton rating: 50%
  clinical response rate: flushes: 60%
  clinical response rate: pruritus: 25%
W12, 3/20 evaluable patients
  OPA: impaired health status at baseline reporting none or minimal impairment: 15%
W12, All
  AFIRMM Δ Mean ± SD: −61.5 ± 49.6
  Flushes per day Δ Mean ± SD: −1.7 ± 1.5
  Hamilton rating Δ Mean ± SD: −5.1 ± 4.4
  Micturitions per day Δ Mean ± SD: −3.1 ± 3.7
  Pruritus Δ Mean ± SD: −3.0 ± 3.4
  QLQ-C30 Functional Δ Mean ± SD: 8.7 ± 18.8
  QLQ-C30 Global Health Δ Mean ± SD: 12.5 ± 24.7
  QLQ-C30 Symptom Δ Mean ± SD: −6.1 ± 13.6
  Stools per day Δ Mean ± SD: −1.9 ± 3.6
[1]
  AFIRMM Δ Mean ± SD: −63.5 ± 52.9
  Flushes per day Δ Mean ± SD: −2.0 ± 1.6
  Hamilton rating Δ Mean ± SD: −4.6 ± 4.3
  Micturitions per day Δ Mean ± SD: −3.0 ± 2.8
  Pruritus Δ Mean ± SD: −3.5 ± 3.6
  QLQ-C30 Functional Δ Mean ± SD: 8.7 ± 21.0
  QLQ-C30 Global Health Δ Mean ± SD: 14.1 ± 27.0
  QLQ-C30 Symptom Δ Mean ± SD: −5.4 ± 14.7
  Stools per day Δ Mean ± SD: −2.0 ± 4.0
[2]
  AFIRMM Δ Mean ± SD: −53.5 ± 38.5
  Flushes per day Δ Mean ± SD: −0.8 ± 0.5
  Hamilton rating Δ Mean ± SD: −10.0
  Micturitions per day Δ Mean ± SD: −3.5 ± 7.8
  Pruritus Δ Mean ± SD: −1.0 ± 2.2
  QLQ-C30 Functional Δ Mean ± SD: 8.6 ± 4.8
  QLQ-C30 Global Health Δ Mean ± SD: 6.3 ± 12.5
  QLQ-C30 Symptom Δ Mean ± SD: −9.5 ± 6.2
  Stools per day Δ Mean ± SD: −1.5 ± 2.1
W12, ITT
  overall clinical response: 14/25
W12, PP patients with elevated tryptase (>15 ng/mL) at baseline (N=5)
  tryptase level, mean reduction: 23%
W12, PP population
  micturition frequency improvement: 39%±14
  stool frequency improvement: 44%±63
W12, evaluable patients (N=20)
  AFIRMM global score improvement: 40%±27
[3]
  micturition frequency improvement: 23%±30
  stool frequency improvement: 29%±58
W12, one patient of 15 evaluable, 7% at baseline
  bone marrow mast cell infiltration: 1%
At 1.5 mg/kg/day
  first response events: Cumulative Frequency: 0%
  first response events: Total events: 0
At 3.0 mg/kg/day
  first response events: AFIRMM score: 4
  first response events: Cumulative Frequency: 46%
  first response events: Flush: 9
  first response events: Hamilton: 4
  first response events: OPA score: 2
  first response events: Pruritus: 5
  first response events: QLQ30 Functional: 3
  first response events: QLQ30 Global: 2
  first response events: QLQ30 Symptom: 2
  first response events: Stool: 5
  first response events: Total events: 36
At 4.5 mg/kg/day
  first response events: AFIRMM score: 1
  first response events: Cumulative Frequency: 61%
  first response events: Flush: 3
  first response events: Hamilton: 2
  first response events: Pruritus: 2
  first response events: QLQ30 Functional: 1
  first response events: QLQ30 Global: 2
  first response events: QLQ30 Symptom: 1
  first response events: Total events: 12
